Tests used:
[1] = tested on: MDA-MB-468, MDA-MB-231, SK-OV-3 and OVCAR-5 cells; test: cell cycle assay; assay type: cell-based, human; details: 48 h, quarter, half of IC50 and IC50
[2] = tested on: six solid tumour cell lines; test: CCK-8 cytotoxicity, summary over six cell lines; assay type: cell-based; details: read-out: IC50 values in these cell lines
[3] = tested on: 4T1-Fluc tumour; test: 4T1-Fluc BALB/c homograft mouse model; assay type: in vivo; details: daily oral; vorinostat, abemaciclib 60 mg/kg

Row | Structure (SMILES) | cell cycle distribution (G1-phase arrest) [1] | IC50 [2] | tumour volume [3]
1 | CCN1CCN(Cc2ccc(Nc3ncc(F)c(-c4cc(F)c5nc(C)n(C(C)C)c5c4)n3)nc2)CC1 [Abemaciclib] | did not induce G1 to S phase arrest | > 1000 nM | decreased only slightly
2 | O=C(CCCCCCC(=O)Nc1ccccc1)NO [Vorinostat] | did not induce G1 to S phase arrest |  | barely impacted
